Results: ChEMBL document CHEMBL5653615 (J Biol Chem, 2013)

What was measured:
[1] = biological target: T1, cGMP-dependent protein kinase 1 (Homo sapiens) (UniProt Q13976); assay: Inhibition of human PKG1a at 18.6 nM by HotSpot assay relative to control
T1 sequence (whole entry): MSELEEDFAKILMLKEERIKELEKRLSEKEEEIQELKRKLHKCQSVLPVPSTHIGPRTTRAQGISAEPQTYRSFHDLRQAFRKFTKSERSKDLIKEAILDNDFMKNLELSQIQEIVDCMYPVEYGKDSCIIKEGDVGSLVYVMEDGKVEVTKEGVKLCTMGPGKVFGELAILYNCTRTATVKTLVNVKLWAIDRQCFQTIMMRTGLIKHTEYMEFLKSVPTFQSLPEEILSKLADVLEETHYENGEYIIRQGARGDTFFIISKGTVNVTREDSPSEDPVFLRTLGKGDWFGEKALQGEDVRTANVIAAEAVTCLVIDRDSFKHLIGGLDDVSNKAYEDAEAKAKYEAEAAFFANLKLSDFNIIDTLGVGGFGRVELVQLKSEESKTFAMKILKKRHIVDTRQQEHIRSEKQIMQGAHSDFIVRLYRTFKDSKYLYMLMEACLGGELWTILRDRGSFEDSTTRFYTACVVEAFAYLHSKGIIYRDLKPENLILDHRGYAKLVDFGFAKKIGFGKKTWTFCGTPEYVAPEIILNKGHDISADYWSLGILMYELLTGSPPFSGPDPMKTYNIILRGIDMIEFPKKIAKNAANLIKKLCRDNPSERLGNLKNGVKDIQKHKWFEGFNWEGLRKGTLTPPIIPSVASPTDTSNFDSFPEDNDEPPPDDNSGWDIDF

[2] = biological target: Protein-tyrosine kinase 6 (Homo sapiens) (UniProt Q13882); assay: Inhibition of human BRK at 18.6 nM by HotSpot assay relative to control
Chain of Protein-tyrosine kinase 6 (Homo sapiens) (Q13882 whole entry, looked up): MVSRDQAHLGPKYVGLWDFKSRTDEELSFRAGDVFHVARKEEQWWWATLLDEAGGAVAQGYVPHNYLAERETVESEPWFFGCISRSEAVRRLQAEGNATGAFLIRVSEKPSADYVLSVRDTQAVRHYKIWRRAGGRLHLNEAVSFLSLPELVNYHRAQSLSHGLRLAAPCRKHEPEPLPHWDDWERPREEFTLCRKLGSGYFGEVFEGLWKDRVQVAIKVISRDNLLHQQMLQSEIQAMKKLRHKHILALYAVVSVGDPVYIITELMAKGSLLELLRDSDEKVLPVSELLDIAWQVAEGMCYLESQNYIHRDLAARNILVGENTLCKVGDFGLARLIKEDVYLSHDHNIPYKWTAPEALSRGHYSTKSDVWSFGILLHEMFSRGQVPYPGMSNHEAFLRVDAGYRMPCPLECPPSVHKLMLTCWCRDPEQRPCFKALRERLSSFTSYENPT

[3] = biological target: Serine/threonine-protein kinase Nek6 (Homo sapiens) (UniProt Q9HC98); assay: Inhibition of human NEK6 at 18.6 nM by HotSpot assay relative to control
Chain of Serine/threonine-protein kinase Nek6 (Homo sapiens) (Q9HC98 whole entry): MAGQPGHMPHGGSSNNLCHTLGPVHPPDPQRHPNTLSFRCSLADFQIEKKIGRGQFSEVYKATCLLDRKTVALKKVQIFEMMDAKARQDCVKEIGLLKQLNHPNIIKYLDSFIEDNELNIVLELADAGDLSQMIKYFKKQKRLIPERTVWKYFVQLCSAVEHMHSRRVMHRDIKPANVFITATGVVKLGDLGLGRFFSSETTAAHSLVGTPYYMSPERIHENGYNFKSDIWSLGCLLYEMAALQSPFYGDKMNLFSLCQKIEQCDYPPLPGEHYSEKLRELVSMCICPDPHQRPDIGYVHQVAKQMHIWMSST

[4] = biological target: Myosin light chain kinase, smooth muscle (Homo sapiens) (UniProt Q15746); assay: Inhibition of human MYLK at 18.6 nM by HotSpot assay relative to control
Chain of Myosin light chain kinase, smooth muscle (Homo sapiens) (Q15746 whole entry): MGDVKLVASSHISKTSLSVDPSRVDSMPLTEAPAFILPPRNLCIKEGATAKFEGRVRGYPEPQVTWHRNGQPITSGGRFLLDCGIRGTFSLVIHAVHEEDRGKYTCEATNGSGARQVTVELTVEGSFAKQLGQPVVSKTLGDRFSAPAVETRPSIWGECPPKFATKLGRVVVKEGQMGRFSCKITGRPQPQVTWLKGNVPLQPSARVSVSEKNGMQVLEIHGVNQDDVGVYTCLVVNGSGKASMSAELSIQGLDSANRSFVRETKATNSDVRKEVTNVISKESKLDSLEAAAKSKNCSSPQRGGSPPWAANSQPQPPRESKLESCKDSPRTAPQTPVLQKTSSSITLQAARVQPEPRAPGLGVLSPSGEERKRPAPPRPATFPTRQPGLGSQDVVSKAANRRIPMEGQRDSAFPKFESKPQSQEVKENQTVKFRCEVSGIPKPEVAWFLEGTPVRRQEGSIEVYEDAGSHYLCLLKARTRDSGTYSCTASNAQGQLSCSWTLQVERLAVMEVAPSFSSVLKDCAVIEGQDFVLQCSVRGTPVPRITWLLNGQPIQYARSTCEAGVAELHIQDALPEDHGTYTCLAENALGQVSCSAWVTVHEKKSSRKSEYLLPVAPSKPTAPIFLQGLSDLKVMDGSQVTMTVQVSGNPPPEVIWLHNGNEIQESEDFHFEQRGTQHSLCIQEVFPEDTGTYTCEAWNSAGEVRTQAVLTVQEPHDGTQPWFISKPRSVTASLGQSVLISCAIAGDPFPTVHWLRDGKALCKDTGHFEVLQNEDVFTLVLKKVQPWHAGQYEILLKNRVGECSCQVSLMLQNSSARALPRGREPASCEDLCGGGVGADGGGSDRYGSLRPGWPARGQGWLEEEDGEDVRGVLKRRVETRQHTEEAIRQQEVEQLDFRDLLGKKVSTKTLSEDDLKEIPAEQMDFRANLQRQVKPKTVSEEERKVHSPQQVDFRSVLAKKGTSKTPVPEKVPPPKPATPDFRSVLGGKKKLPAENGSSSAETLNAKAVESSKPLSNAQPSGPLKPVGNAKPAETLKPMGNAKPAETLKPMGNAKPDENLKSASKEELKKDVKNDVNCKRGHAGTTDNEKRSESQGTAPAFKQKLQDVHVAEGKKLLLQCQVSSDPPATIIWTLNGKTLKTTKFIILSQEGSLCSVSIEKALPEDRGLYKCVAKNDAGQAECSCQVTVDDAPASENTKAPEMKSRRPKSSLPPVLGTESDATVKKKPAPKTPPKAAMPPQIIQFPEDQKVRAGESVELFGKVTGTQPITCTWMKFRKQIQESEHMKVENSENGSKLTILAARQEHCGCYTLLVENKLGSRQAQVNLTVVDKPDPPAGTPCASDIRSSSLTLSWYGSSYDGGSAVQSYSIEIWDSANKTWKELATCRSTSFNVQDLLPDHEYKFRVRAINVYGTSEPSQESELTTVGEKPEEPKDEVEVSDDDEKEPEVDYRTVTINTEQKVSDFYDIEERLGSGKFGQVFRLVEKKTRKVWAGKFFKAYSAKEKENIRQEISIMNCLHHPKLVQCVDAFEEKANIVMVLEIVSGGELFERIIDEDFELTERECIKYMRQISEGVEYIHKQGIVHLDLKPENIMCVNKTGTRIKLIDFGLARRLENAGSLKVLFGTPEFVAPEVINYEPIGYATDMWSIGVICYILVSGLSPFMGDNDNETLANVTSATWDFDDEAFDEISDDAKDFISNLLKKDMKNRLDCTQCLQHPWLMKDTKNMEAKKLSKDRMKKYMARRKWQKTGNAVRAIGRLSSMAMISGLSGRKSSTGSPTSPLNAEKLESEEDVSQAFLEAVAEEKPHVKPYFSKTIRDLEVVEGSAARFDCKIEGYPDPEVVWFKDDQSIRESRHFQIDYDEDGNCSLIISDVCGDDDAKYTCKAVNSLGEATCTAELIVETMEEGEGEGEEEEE

[5] = biological target: T2, Serine/threonine-protein kinase D2 (Homo sapiens) (UniProt Q9BZL6); assay: Inhibition of human PRKD2 at 18.6 nM by HotSpot assay relative to control
T2 sequence (whole entry): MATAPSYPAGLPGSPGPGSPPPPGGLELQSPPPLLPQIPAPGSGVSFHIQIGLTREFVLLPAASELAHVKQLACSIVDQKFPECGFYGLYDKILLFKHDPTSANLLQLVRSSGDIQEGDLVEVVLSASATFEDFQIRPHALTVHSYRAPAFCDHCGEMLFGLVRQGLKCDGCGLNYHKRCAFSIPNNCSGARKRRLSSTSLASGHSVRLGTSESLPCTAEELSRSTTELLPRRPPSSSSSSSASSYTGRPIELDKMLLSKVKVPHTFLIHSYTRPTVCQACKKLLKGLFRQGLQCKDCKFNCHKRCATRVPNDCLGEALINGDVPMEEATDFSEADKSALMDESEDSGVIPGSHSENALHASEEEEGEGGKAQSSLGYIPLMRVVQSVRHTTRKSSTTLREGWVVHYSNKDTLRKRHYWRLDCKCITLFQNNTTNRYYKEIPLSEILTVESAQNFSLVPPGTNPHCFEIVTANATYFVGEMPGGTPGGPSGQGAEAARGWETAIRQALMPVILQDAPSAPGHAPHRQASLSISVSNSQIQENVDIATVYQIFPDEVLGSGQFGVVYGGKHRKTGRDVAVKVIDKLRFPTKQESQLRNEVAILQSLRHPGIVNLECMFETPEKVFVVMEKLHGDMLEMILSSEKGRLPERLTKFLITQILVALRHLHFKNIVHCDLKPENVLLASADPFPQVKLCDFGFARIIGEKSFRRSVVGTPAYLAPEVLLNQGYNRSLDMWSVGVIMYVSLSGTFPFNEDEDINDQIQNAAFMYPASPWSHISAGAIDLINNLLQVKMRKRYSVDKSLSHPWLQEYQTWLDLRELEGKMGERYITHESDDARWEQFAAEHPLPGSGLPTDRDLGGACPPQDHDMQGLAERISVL

[6] = biological target: T3, Serine/threonine-protein kinase Sgk1 (Homo sapiens) (UniProt O00141); assay: Inhibition of human SGK1 at 18.6 nM by HotSpot assay relative to control
T3 sequence (whole entry): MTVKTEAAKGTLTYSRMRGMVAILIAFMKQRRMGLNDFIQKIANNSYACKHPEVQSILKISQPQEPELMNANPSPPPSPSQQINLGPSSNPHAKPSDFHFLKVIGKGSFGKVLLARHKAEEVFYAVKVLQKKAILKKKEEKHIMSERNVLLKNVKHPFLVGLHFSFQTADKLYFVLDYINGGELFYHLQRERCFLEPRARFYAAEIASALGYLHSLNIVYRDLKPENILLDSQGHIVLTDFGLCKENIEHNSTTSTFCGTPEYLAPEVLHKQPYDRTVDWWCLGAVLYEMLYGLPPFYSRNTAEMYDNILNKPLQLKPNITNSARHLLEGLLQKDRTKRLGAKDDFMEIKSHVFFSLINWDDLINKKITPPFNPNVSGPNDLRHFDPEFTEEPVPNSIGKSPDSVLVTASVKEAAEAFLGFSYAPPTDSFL

[7] = biological target: Dual specificity protein kinase CLK3 (Homo sapiens) (UniProt P49761); assay: Inhibition of human CLK3 at 18.6 nM by HotSpot assay relative to control
Chain of Dual specificity protein kinase CLK3 (Homo sapiens) (P49761 whole entry, looked up): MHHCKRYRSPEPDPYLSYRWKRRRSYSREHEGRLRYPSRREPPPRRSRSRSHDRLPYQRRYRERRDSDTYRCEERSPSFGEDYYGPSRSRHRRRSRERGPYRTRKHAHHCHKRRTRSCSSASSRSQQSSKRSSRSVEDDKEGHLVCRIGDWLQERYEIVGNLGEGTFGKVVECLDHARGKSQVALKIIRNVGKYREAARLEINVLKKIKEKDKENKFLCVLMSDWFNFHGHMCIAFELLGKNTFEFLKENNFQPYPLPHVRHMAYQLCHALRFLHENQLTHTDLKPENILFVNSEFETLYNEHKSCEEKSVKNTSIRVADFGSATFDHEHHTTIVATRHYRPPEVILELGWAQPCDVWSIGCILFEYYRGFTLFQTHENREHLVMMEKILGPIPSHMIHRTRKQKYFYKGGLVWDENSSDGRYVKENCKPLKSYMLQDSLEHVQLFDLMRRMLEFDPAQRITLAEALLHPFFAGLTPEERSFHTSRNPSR

[8] = biological target: Serine/threonine-protein kinase N1 (Homo sapiens) (UniProt Q16512); assay: Inhibition of human PRK1 at 1.82 nM by HotSpot assay relative to control
Chain of Serine/threonine-protein kinase N1 (Homo sapiens) (Q16512 2-942 limits assumed): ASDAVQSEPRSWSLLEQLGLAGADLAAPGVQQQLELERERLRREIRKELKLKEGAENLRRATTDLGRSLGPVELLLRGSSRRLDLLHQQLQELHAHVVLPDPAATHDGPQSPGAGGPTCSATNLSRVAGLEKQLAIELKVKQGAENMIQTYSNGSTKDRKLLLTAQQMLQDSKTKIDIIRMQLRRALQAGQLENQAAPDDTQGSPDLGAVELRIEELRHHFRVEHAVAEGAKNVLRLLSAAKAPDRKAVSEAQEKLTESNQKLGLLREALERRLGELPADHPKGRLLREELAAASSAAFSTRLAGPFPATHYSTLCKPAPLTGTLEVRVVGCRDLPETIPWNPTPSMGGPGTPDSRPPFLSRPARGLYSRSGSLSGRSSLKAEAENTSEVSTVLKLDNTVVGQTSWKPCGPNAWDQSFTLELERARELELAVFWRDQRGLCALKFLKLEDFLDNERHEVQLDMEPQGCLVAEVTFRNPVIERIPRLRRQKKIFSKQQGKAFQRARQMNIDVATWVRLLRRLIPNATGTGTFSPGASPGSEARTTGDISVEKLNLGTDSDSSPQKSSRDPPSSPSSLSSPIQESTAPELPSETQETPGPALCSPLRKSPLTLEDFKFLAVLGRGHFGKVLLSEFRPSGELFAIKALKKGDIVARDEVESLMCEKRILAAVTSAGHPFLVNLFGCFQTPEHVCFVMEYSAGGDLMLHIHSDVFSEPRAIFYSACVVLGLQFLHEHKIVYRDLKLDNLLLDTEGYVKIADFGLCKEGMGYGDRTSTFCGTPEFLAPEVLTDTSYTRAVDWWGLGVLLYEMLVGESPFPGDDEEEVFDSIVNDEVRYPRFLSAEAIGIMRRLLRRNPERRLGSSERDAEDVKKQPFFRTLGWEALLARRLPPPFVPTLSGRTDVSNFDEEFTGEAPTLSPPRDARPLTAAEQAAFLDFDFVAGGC

[9] = biological target: Tyrosine-protein kinase SYK (Homo sapiens) (UniProt P43405); assay: Inhibition of human SYK at 1.82 nM by HotSpot assay relative to control
[10] = biological target: Serine/threonine-protein kinase N2 (Homo sapiens) (UniProt Q16513); assay: Inhibition of human PRK2 at 1.82 nM by HotSpot assay relative to control
Chain of Serine/threonine-protein kinase N2 (Homo sapiens) (Q16513 whole entry, looked up): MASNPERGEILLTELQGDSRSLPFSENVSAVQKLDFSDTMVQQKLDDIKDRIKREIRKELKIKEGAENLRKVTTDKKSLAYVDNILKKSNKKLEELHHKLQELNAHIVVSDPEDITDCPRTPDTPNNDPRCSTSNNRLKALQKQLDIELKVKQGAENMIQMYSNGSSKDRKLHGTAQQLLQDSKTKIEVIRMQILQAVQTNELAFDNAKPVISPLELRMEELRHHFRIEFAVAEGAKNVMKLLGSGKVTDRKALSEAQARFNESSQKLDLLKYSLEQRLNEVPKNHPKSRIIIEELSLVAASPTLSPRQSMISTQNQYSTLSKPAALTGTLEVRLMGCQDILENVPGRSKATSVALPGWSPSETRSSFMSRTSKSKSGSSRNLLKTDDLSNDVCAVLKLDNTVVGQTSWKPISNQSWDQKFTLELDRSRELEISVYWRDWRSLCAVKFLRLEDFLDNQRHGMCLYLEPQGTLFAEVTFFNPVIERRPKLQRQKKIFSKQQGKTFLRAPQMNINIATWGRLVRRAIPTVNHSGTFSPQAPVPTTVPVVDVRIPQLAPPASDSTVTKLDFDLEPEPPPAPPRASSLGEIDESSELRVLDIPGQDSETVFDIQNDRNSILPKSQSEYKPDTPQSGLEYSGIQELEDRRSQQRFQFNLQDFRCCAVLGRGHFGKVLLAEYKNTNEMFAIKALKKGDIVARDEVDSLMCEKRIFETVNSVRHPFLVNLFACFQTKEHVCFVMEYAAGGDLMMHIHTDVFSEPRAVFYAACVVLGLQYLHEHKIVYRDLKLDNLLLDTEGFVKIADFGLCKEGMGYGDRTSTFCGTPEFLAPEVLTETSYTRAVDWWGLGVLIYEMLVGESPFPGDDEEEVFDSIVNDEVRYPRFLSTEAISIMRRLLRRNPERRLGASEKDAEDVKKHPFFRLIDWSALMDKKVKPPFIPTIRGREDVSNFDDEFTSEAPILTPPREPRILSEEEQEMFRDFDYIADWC

[11] = biological target: Dual specificity protein kinase CLK2 (Homo sapiens) (UniProt P49760); conditions: dose 1.82 nM
Description: Inhibition of human CLK2 at 1.82 nM by HotSpot assay relative to control

SMILES	inhibition [1]	inhibition [2]	inhibition [3]	inhibition [4]	inhibition [5]	inhibition [6]	inhibition [7]	inhibition [8]	inhibition [9]	inhibition [10]	inhibition [11]
C[C@]1(O)C[C@@H](c2nc(-c3ccc4ccc(-c5ccccc5)nc4c3)c3c(N)nccn32)C1	5.49%	3.64%	14.9%	2.54%	7.59%	3.48%	-0.8%				
C[C@@]1(C(=O)Nc2ccc(F)nc2)CCCN1c1nc(Nc2cc(C3CC3)n[nH]2)c2cccn2n1								-8.35%	-1.25%	-0.34%	-1.7%
